± gives the expanded uncertainty stated by the source.
Details: Liquid

FCF [difluoromethane]
Details	vapor or sublimation pressure [kPa]
283.19 K	1111 ± 2
288.21 K	1286 ± 2
293.24 K	1481 ± 3
298.26 K	1697 ± 3
303.27 K	1935 ± 3
308.28 K	2197 ± 4
313.3 K	2485 ± 4
318.28 K	2801 ± 5
323.3 K	3147 ± 5
328.31 K	3526 ± 6
343.26 K	4892 ± 8

CCC [propane]
Details	vapor or sublimation pressure [kPa]
277.17 K	536 ± 1
283.22 K	638 ± 2
288.26 K	734 ± 2
293.27 K	838 ± 2
298.3 K	955 ± 2
302.27 K	1055 ± 2
308.8 K	1236 ± 2
311.8 K	1326 ± 2
313.24 K	1370 ± 2
318.22 K	1537 ± 3
323.22 K	1716 ± 3
328.26 K	1911 ± 3
333.29 K	2120 ± 3
338.31 K	2346 ± 4
343.26 K	2591 ± 4
348.31 K	2852 ± 5
353.41 K	3134 ± 5

Reference: the NIST ThermoML archive (doi:10.1021/je020115d)
